Biological target: Pdr5 (Saccharomyces cerevisiae, UniProt P33302)
Experiment: fluorescence transport assay in isolated plasma membranes
Format: biochemical
Conditions: 150 nM R6G, 10 mM ATP, 5 mM MgCl2, Hepes pH 7.0, 30 °C

Chain of Pdr5 (P33302 whole entry): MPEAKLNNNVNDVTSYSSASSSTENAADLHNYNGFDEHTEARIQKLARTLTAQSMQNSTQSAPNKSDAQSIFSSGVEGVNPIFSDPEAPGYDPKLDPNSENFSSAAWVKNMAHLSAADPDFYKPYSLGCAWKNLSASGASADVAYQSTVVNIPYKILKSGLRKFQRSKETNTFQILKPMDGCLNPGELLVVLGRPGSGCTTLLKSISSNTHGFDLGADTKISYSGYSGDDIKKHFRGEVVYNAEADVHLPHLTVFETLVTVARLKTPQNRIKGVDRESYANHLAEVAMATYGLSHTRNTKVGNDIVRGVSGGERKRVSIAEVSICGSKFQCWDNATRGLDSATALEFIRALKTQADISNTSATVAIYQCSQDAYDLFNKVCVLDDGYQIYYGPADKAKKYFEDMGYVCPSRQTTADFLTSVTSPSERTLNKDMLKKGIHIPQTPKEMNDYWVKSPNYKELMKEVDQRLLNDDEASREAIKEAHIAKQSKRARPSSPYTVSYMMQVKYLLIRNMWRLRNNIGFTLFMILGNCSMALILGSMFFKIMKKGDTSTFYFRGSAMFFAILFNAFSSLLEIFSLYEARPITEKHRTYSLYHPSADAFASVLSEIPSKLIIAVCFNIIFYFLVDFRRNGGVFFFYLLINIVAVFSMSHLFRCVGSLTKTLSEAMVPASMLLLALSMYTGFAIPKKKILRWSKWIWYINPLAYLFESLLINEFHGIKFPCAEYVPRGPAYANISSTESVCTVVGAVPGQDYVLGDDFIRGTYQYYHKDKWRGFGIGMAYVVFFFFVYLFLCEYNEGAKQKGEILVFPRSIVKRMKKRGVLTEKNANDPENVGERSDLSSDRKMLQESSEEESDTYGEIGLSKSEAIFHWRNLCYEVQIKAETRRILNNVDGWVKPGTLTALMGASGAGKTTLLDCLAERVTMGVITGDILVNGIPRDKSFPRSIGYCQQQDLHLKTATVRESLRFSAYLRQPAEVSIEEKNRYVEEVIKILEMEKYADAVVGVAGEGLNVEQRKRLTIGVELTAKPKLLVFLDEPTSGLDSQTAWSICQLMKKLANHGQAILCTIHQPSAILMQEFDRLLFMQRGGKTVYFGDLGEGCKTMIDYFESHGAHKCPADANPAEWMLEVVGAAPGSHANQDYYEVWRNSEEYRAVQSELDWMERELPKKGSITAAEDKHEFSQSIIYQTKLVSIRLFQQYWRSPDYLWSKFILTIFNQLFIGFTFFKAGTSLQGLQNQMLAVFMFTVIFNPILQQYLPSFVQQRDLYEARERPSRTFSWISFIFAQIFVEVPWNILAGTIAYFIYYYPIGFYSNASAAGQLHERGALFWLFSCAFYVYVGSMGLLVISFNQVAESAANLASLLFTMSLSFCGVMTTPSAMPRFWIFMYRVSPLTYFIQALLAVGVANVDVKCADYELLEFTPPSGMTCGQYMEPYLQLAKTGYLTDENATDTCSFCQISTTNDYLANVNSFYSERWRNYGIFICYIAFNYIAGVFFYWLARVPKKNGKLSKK

CCN=c1cc2oc3cc(NCC)c(C)cc3c(-c3ccccc3C(=O)OCC)c-2cc1C [rhodamine-6G]
fluorescence transport assay in isolated plasma membranes: Active transport of rhodamine-6G (R6G) was determined according to a standard protocol
